Data: patent US20060148885A1, “Medicinal composition” (Kyowa Hakko Kogyo Co., Ltd., priority 2003, published 2006)
Where a name gives a salt, the structure may show the parent alone.

Test system: rats with bladder hypertrophy
Assay: Inhibitory activity on detrusor overactivity: cystometry in rats with partial urethral obstruction
Type: in vivo, SD rats
Conditions: p.o., Compound (Ia) 0.01 mg/kg, tamsulosin 0.03 mg/kg; for amplitude of premicturition contractions (relative value, before administration = 100) / frequency of premicturition contractions (relative value, before administration = 100) / amplitude of micturition contractions (relative value, before administration = 100): average ± standard error; for amplitude of premicturition contractions (relative value, before administration = 100) / frequency of premicturition contractions (relative value, before administration = 100): n = 9-10; for amplitude of micturition contractions (relative value, before administration = 100): index of voiding function; for effect on micturition contractions (voiding function), in words / effect on premicturition contractions (amplitude and frequency), in words: summary of Test Example
Procedure: The experiment was carried out according to the method by Malmgren, et al. [J. Urol., Vol. 142, pp. 1134-1138 (1989)]. Female SD rats of 8 to 9 weeks of age (supplied by Charles River Japan) were used in the test. Five to seven animals of these rats were housed in metal cages and given commercially available chow and water ad libtum, in an animal room maintained at room temperature from 19° C. to 25° C. and humidity from 30% to 70% under illumination for 12 hours (7:00 a.m.-7:00 p.m.) per day. The rats were subjected to operation of partial urethral obstruction. Each animal was anesthetized by intraperitoneal administration of 50 mg/kg pentobarbital sodium (Tokyo Kasei), and the midline incision of the skin and muscle was made in the lower abdomen. A polyethylene tube (PE-20, Becton Dickinson) was inserted into urethra from the urethral orifice to the bladder neck. After the proximal urethra was separated from connective tissues and ligated using double suture, the polyethylene tube was removed to induce partial urethral obstruction. The incised part was sutured with a surgical silk thread. An antibiotic ampicillin (Sigma) was intramusclarly injected (150 mg/kg, once a day, for 3 days). Six weeks after the operation of the partial urethral obstruction, the rats with bladder hypertrophy were subjected to intravesical implantation of catheter. Under anesthesia with pentobarbital sodium, the bladder was exposed by an abdominal midline incision. A polyethylene tube (PE-50, Becton Dickinson), one end of which was blunted not to damage the bladder tissue, was filled with a physiological saline (Otsuka Pharmaceutical Factory) and inserted into the bladder via the bladder apex. The intravesical catheter was fixed with a surgical silk suture. The other end of the catheter was tunneled subcutaneously, drawn out from the dorsal neck, plugged and then fixed to the skin with a suture. Four to seven days after the surgery for implantation of intravesical catheter, a cystometry test was performed. The rats were housed in a Bollman cage (Natsume Seisakusho) and a three-way stopcock was connected to the intravesical catheter, one end of the stopcock was connected to a pressure transducer (Nihon Kohden) and the other end was connected to a 50-mL syringe (Terumo) set in an infusion pump (KD Scientific) for physiological saline infusion. The intravesical pressure was measured with a polygraph system (RMP-6008, Nihon Kohden) via a pressure transducer and a strain pressure amplifier (AP-621G, Nihon Kohden), and recorded on a thermal array recorder (RTA-1200, Nihon Kohden). Sixty to 90 minutes after the completion of the preparation for the measurement, a room temperature physiological saline was continuously infused into the urinary bladder for 30 minutes at a flow rate of 10 mL/h to confirm the occurrence of micturition contractions and premicturition contractions (detrusor overactivity). Thirty minutes after the cessation of the first saline infusion, the saline was again infused intravesically for 30 minutes, and this period is for determination of the data before drug administration. Compound (Ia) was suspended in a 0.5 w/v (weight/volume) % methyl cellulose solution at a concentration of 1 mg/ml. The suspension was further diluted with a 0.5 w/v % methyl cellulose solution to prepare solution for administration [solution for Compound (Ia) administration] at a concentration of 0.01 mg/ml. The solution was orally administered to the rats at a volume of 1 ml/kg. Tamsulosin hydrochloride was dissolved in a 0.5 w/v % methyl cellulose solution at a concentration of 0.03 mg/ml (solution for tamsulosin administration), and the solution was orally administered to the rats at a volume of 1 ml/kg. For investigating the effect of the combined administration, Compound (Ia) solution and the tamsulosin solution were simultaneously and orally administered to the rats, both at a volume of 1 ml/kg each. […]

C[C@](O)(C(=O)Nc1cccc2c1C(=O)c1sccc1CS2(=O)=O)C(F)(F)F [Compound (Ia), (S)-(+)-3,3,3-trifluoro-2-hydroxy-2-methyl-N-(5,5,10-trioxo-4,10-dihydrothieno[3,2-c][1]benzothiepin-9-yl)propanamide]
amplitude of premicturition contractions (relative value, before administration = 100) (After 1 hour): 62.3 ± 7.7 % | frequency of premicturition contractions (relative value, before administration = 100) (After 1 hour): 52.3 ± 7.3 % | amplitude of micturition contractions (relative value, before administration = 100) (After 1 hour): 109.5 ± 2.2% | amplitude of premicturition contractions (relative value, before administration = 100) (After 3 hours): 62.8 ± 7.6 % | frequency of premicturition contractions (relative value, before administration = 100) (After 3 hours): 46.2 ± 8.1 % | amplitude of micturition contractions (relative value, before administration = 100) (After 3 hours): 105.5 ± 3.8% | amplitude of premicturition contractions (relative value, before administration = 100) (After 5 hours): 65.6 ± 7.5 % | frequency of premicturition contractions (relative value, before administration = 100) (After 5 hours): 42.4 ± 6.0 % | amplitude of micturition contractions (relative value, before administration = 100) (After 5 hours): 96.7 ± 2.4% | effect on micturition contractions (voiding function), in words: did not affect micturition contractions | effect on premicturition contractions (amplitude and frequency), in words: inhibited premicturition contractions

CCOc1ccccc1OCCN[C@H](C)Cc1ccc(OC)c(S(N)(=O)=O)c1 [Tamsulosin, Tamsulosin hydrochloride]
amplitude of premicturition contractions (relative value, before administration = 100) (After 1 hour): 62.0 ± 5.2 % | frequency of premicturition contractions (relative value, before administration = 100) (After 1 hour): 57.8 ± 7.5 % | amplitude of micturition contractions (relative value, before administration = 100) (After 1 hour): 108.5 ± 6.4% | amplitude of premicturition contractions (relative value, before administration = 100) (After 3 hours): 75.2 ± 5.5 % | frequency of premicturition contractions (relative value, before administration = 100) (After 3 hours): 73.2 ± 5.3 % | amplitude of micturition contractions (relative value, before administration = 100) (After 3 hours): 108.1 ± 6.0% | amplitude of premicturition contractions (relative value, before administration = 100) (After 5 hours): 88.3 ± 7.2 % | frequency of premicturition contractions (relative value, before administration = 100) (After 5 hours): 78.4 ± 7.0% | amplitude of micturition contractions (relative value, before administration = 100) (After 5 hours): 104.7 ± 6.4% | effect on micturition contractions (voiding function), in words: did not affect micturition contractions | effect on premicturition contractions (amplitude and frequency), in words: inhibited premicturition contractions
